Structures are written as SMILES.

These results are taken from US20080287435A1, “Active Ingredient Combinations Having Insecticide and Acaricide Properties” (Bayer CropScience AG, priority 2005, published 2008).

For one test, the system named is Myzus persicae. Nature of the test: Myzus persicae test (cabbage leaf dip). The following applies: concentration 20 ppm; peach aphid on cabbage leaves (Brassica oleracea), dipped. It is filed as in vivo. The method, then: To produce a suitable preparation of active compound, one part by weight of active compound is mixed with the stated amounts of solvent and emulsifier, and the concentrate is diluted with emulsifier-containing water to the desired concentration.
Cabbage leaves (Brassica oleracea) which are heavily infested by the peach aphid (Myzus persicae) are treated by being dipped into the preparation of active compound of the desired concentration.
After the desired period of time, the kill in % is determined. 100% means that all aphids have been killed; 0% means that none of the aphids have been killed.

For another test, the system named is Plutella xylostella. Description: Plutella xylostella test (cabbage leaf dip). It is filed as in vivo. The following applies: concentration 0.16 ppm; diamond back moth caterpillars on dipped cabbage leaves. The method, then: To produce a suitable preparation of active compound, 1 part by weight of active compound is mixed with the stated amounts of solvent and emulsifier, and the concentrate is diluted with emulsifier-containing Water to the desired concentration.
Cabbage leaves (Brassica oleracea) are treated by being dipped into the preparation of active compound of the desired concentration and are populated with caterpillars of the diamond back moth (Plutella xylostella) while the leaves are still moist.
After the desired period of time, the kill in % is determined. 100% means that all caterpillars have been killed; 0% means that none of the caterpillars have been killed.

`CC[S+]([O-])c1c(C#N)nn(-c2c(Cl)cc(C(F)(F)F)cc2Cl)c1N` (centres unmarked) [Ethiprole, ethiprole]: the “Kill in % after 6 d” value in the test on Myzus persicae stood at 10%; in the test on Plutella xylostella, 0%.
